In assay [1] the target is human recombinant GCL (Homo sapiens (Human), UniProt P48506). As to the kind of experiment: GCL enzyme profiling assay (ADP-Glo luminescence). The class given is biochemical. The following applies: read-out: GCL IC50. The gist of the method: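 IC50 fitted by four-parameter logistic to luminescent ADP formation (ADP-Glo). Reaction at room temperature in HEPES pH 7.5 with 30 mM MgCl2, 0.2% F-127, 1% DMSO; 5 nM GCL and 0.6 mM ATP preincubated 1 h before adding 1 mM glutamate plus 1.2 mM α-aminobutyrate for 2 h.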
On the technique in general: ADP-Glo turns the ADP formed in a reaction into a luminescent signal.

Assay [2] has as its system RKN cells. As to the kind of experiment: RKN cell profiling assay (cell viability, CellTiter-Glo). The class given is cell-based. The following applies: read-out: Cell Killing EC50. The procedure, abridged: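 Viability read by CellTiter-Glo luminescence after 96 h compound exposure (0.5% DMSO final) of cells plated at 1,000/well in 10% FBS F-12 and allowed 24 h attachment. Four-parameter fits gave EC50; rescue arms used ferrostatin-1, 1.5 μM, present from seeding.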
In general terms: Cellular ATP, detected with luciferase, serves as a proxy for viable cell number.

Setting [3] is: human recombinant GCL 5 nM, 1 h preincubation with ATP.

The structures appear in SMILES notation. Like-named read-outs stand apart in the source and are kept apart here.

Chain of human recombinant GCL (P48506 whole entry): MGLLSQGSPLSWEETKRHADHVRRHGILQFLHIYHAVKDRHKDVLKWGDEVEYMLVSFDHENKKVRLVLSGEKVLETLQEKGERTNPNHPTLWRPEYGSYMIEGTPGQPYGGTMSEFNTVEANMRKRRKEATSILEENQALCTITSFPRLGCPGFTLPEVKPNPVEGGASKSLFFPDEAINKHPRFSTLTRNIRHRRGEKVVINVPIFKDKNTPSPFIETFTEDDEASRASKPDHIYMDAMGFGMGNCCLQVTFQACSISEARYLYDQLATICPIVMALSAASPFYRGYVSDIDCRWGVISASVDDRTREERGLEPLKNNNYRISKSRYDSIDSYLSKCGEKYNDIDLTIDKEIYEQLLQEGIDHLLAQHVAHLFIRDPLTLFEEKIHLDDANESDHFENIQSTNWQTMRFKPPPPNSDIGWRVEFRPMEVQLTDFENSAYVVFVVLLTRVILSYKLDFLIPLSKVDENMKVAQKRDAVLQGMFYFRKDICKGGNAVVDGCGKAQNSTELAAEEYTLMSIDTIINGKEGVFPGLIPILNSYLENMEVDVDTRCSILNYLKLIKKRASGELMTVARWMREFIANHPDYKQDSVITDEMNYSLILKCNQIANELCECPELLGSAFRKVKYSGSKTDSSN

In general, IC50 refers to the concentration that inhibits the measured activity by half. Broadly, the EC50 is the concentration that produces a half-maximal response. Regarding `N=S(=O)(CCc1cccs1)CC[C@H](N)C(=O)O` (some centres unmarked) [Compound 48], the IC50 in assay [1] (setting [3]) is at most 0.02 mM. In addition, the EC50 in assay [2] (96 h, 96 h exposure) was at least 1 mM.

As for `N=S(=O)(CCc1nccs1)CC[C@H](N)C(=O)O` (some centres unmarked) [Compound 10], the concentration for half-maximal inhibition (IC50) in assay [1] (setting [3]) is above 2 mM. Further, the EC50 in assay [2] (96 h, 96 h exposure) is at least 1 mM.

For `CCCCS(=N)(=O)CC[C@H](N)C(=O)NS(=O)(=O)C1CC1` (some centres unmarked) [Compound 109], in assay [1] (setting [3]), the IC50 is 0.02 to 2 mM. In addition, the concentration for a half-maximal effect (EC50) in assay [2] (96 h, 96 h exposure) is at least 1 mM.

For `N=S(=O)(CCC1CCCC1(F)F)CC[C@H](N)C(=O)O` (some centres unmarked) [Compound 180], the IC50 in assay [1] (setting [3]) was at most 0.02 mM. Besides, the concentration for a half-maximal effect (EC50) in assay [2] (96 h, 96 h exposure) is at least 1 mM.

Take `N=S(=O)(CC[C@H](N)C(=O)O)CCC1(C(=O)Nc2ccccc2)CCC1` (some centres unmarked) [Compound 195]: the IC50 in assay [1] (setting [3]) is 0.02 to 2 mM. Further, the EC50 in assay [2] (96 h, 96 h exposure) was at least 1 mM.

Regarding `N=S(=O)(CCc1ccc(Cl)c(Cl)c1)CC[C@H](N)C(=O)O` (some centres unmarked) [Compound 13], the IC50 in assay [1] (setting [3]) was at most 0.02 mM. In assay [2] (96 h, 96 h exposure), the EC50 was at least 1 mM.

Take `N=S(=O)(CC[C@H](N)C(=O)O)CCC1(NC(N)=O)CCC1` (stereo partly drawn) [Compound 206, (2S)-2-amino-4-(2-(1-ureidocyclobutyl)ethylsulfonimidoyl)butanoic acid]: the IC50 in assay [1] (setting [3]) was in the range of 0.02 to 2 mM. Besides, the EC50 in assay [2] (96 h, 96 h exposure) is below 1 mM.

`N=S(=O)(CC[C@H](N)C(=O)O)CCC(O)(c1cc2ccccc2cn1)C(F)(F)F` (stereo partly drawn) [Compound 331, (2S)-2-amino-4-(4,4,4-trifluoro-3-hydroxy-3-(isoquinolin-3-yl)butylsulfonimidoyl)butanoic acid]: in assay [1] (human recombinant GCL, ADP-Glo), the IC50 was at most 0.02 mM. In assay [2] (cell viability), the EC50 was below 1 mM.

Consider `N=S(=O)(CC[C@H](N)C(=O)O)CCC1(c2ccc3[nH]ncc3c2)CCC1` (some centres unmarked) [Compound 394], for which the half-maximal inhibitory concentration (IC50) in assay [1] (human recombinant GCL, ADP-Glo) was at most 0.02 mM. For the same molecule, the EC50 in assay [2] (cell viability) was at least 1 mM.

For `CS(=O)(=O)c1ccc(-c2ccc(C(O)(CCS(=N)(=O)CC[C@H](N)C(=O)O)C(F)(F)F)cc2)c(Cl)c1` (some centres unmarked) [Compound 442], the IC50 in assay [1] (human recombinant GCL, ADP-Glo) is at most 0.02 mM. Also, in assay [2] (cell viability), the EC50 is at least 1 mM.

Regarding `CC(C)(CCS(=N)(=O)CC[C@H](N)C(=O)O)C(F)(F)F` (some centres unmarked) [Compound 152], in assay [1] (setting [3]), the IC50 lay within 0.02 to 2 mM. In addition, the EC50 in assay [2] (96 h, 96 h exposure) was below 1 mM.

With `CCCCOC(=O)[C@@H](N)CCS(=N)(=O)CCc1cccc(F)c1C(F)(F)F` (some centres unmarked) [Compound 92], the concentration for half-maximal inhibition (IC50) in assay [1] (setting [3]) lay in the range of 0.02 to 2 mM. In assay [2] (96 h, 96 h exposure), the EC50 was below 1 mM.

With `N=[S@@](=O)(CC[C@H](N)C(=O)O)CCC1(CO)CCC1` [compound 515], in assay [1] (human recombinant GCL, ADP-Glo), the 50% inhibitory concentration (IC50) was at most 0.02 mM. Moreover, the EC50 in assay [2] (cell viability) was below 1 mM.

`N=[S@@](=O)(CC[C@H](N)C(=O)O)CC[C@@](O)(c1ccccc1)C(F)(F)F` [Compound 347, (S)-2-amino-4-((R,3R)-4,4,4-trifluoro-3-hydroxy-3-phenylbutylsulfonimidoyl)butanoic acid]: the IC50 in assay [1] (human recombinant GCL, ADP-Glo) was at most 0.02 mM. The concentration for a half-maximal effect (EC50) in assay [2] (cell viability) was below 1 mM.

For the molecule `N=[S@SP2](=O)(CCC(N)C(=O)O)CCC12CC(c3ccc(C(F)(F)F)cc3)(C1)C2(F)F` (centres unmarked) [compound 500], the IC50 in assay [1] (human recombinant GCL, ADP-Glo) is at most 0.02 mM. In assay [2] (cell viability), the 50% effective concentration (EC50) was at least 1 mM.

`N=S(=O)(CC[C@H](N)C(=O)O)CCC(O)(c1ccc(-c2ccc(Cl)cc2Cl)cc1OC(F)(F)F)C(F)(F)F` (some centres unmarked) [Compound 449]: the IC50 in assay [1] (human recombinant GCL, ADP-Glo) was at most 0.02 mM. Moreover, the half-maximal effective concentration (EC50) in assay [2] (cell viability) is at least 1 mM.

Regarding `N=S(=O)(CCc1cccc(F)c1F)CC[C@H](N)C(=O)O` (some centres unmarked) [Compound 16], the IC50 in assay [1] (setting [3]) is at most 0.02 mM. Besides, the concentration for a half-maximal effect (EC50) in assay [2] (96 h, 96 h exposure) was below 1 mM.

In the case of `CC(C)(C)c1cc(-c2ccc(C(O)(CCS(=N)(=O)CC[C@H](N)C(=O)O)C(F)(F)F)cc2)ccc1O` (some centres unmarked) [Compound 456], in assay [1] (human recombinant GCL, ADP-Glo), the IC50 was at most 0.02 mM. Moreover, the EC50 in assay [2] (cell viability) was at least 1 mM.

Turning to `N=S(=O)(CCC(n1ccc(-c2cccnc2)n1)C(F)(F)F)CC[C@H](N)C(=O)O` (some centres unmarked) [Compound 414], the half-maximal inhibitory concentration (IC50) in assay [1] (human recombinant GCL, ADP-Glo) was 0.02 to 2 mM. For the same molecule, in assay [2] (cell viability), the EC50 was at least 1 mM.

`Cc1cc(Cl)ccc1-c1ccc(C(O)(CCS(=N)(=O)CC[C@H](N)C(=O)O)C(F)(F)F)nc1` (some centres unmarked) [Compound 478]: the IC50 in assay [1] (human recombinant GCL, ADP-Glo) was at most 0.02 mM. The EC50 in assay [2] (cell viability) is below 1 mM.

With `CC(C)(C)OC(=O)[C@@H](N)CC[S@@](=N)(=O)CC[C@@H](O)C(F)(F)F` [Compound 491, tert-butyl (S)-2-amino-4-((R,3R)-4,4,4-trifluoro-3-hydroxybutylsulfonimidoyl)butanoate], the IC50 in assay [1] (human recombinant GCL, ADP-Glo) was 0.02 to 2 mM. The EC50 in assay [2] (cell viability) was below 1 mM.

With `COC(CC[S@](=N)(=O)CC[C@H](N)C(=O)O)C(F)(F)F` (some centres unmarked) [Compound 179], in assay [1] (setting [3]), the IC50 was at most 0.02 mM. In addition, the EC50 in assay [2] (96 h exposure) is below 1 mM.

Take `COC(=O)[C@@H](N)CCS(=N)(=O)CCc1ccccc1` (stereo partly drawn) [Compound 68, (2S)-methyl 2-amino-4-(2-phenylethylsulfonimidoyl)butanoate]: the IC50 in assay [1] (setting [3]) lay in the range of 0.02 to 2 mM. Further, the EC50 in assay [2] (96 h, 96 h exposure) was at least 1 mM.

As for `N=S(=O)(CCC(c1ccc(-c2cc(F)cc(F)c2)cc1)C(F)(F)F)CC[C@H](N)C(=O)O` (some centres unmarked) [Compound 222], in assay [1] (human recombinant GCL, ADP-Glo), the IC50 was at most 0.02 mM. Moreover, the EC50 in assay [2] (cell viability) was below 1 mM.

As to `CCC(CS(=N)(=O)CC[C@H](N)C(=O)O)c1ccccc1C(F)(F)F` (some centres unmarked) [Compound 47], the IC50 in assay [1] (setting [3]) was above 2 mM. The EC50 in assay [2] (96 h, 96 h exposure) was at least 1 mM.

The record behind these values is US20260034094A1, “COMPOSITIONS AND METHODS FOR INDUCING FERROPTOSIS” (Kojin Therapeutics, Inc., priority 2022, published 2026).
